Reference: patent US9982232B2, “Methods of generating cells with multilineage potential” (NEWSOUTH INNOVATIONS PTY LIMITED, priority 2012, dated 2018)

Assays:
Format in all cases: cell-based, mouse
[1] = test system: in vitro differentiated bone, cartilage and fat cells; test: CFU-F colony formation and replating of in vitro derived bone, cartilage and fat cells cultured with cytokines with and without AZA; details: for colony forming potential (CFU-F): cells maintained 12 days in MSC culture medium with supplement
Procedure: (§1) In vitro differentiated bone, cartilage, fat and long-bone derived osteocytes were first cultured in MSC medium (αMEM+20% FCS+P/S/G) with or without 10 μM 5′Azacitidine (Tocris Biosciences) and with or without cytokine (50 or 100 ng/ml Pdgf-AA or Pdgf-BB or Pdgf-AB, 10 ng/ml bFgf, 20 ng/ml HGF, 10 ng/ml Igf-1 and 10 ng/ml Vegf for 2 days and then cultured in MSC media with or without cytokine for 10 days. In order to investigate the reprogramming cell signalling pathways, inhibitors were added to the reprogramming cocktail from day 1 and kept for 12 days. Media was refreshed every 3-4 days. At the end of day 12 cells were harvested for downstream analysis.
CFU-Fs, oCFU-Fs, cCFU-Fs and aCFU-Fs were expanded in bulk culture after plating 10,000 cells per T75 flask. Resulting cells were split every 8 days. CFU-F and oCFU-F colonies were isolated individually using cloning cylinders (‘O” rings) (Sigma-Aldrich) and CFU-F clones (micro, small and large) and Osteocyte oCFU-F clones (micro, small and large) were pooled individually as micro (MC), small (SC) and large (LC) colonies and cultured first in T25 flask for 12 days and then from passage 2 onwards in T75 flask for 12 days. Cumulative cells numbers were calculated and plotted (log 10 scale). Micro, small and large colony's 2ry, 3ry and 4ry colony formation was evaluated by plating single cell from individual colonies into 96 well plates. In order to investigate differences in proliferative capacity of reprogrammed cells compared with primary CFU-Fs, cells were plated on RTCA resistor plate 96 (Roche Diagnostics) (200 cells/well) and recorded using XCELLigence (ACEA Biosciences) every 15 mins for 8 days.
To test whether lineage committed mesodermal cells could be induced to proliferate, bone marrow CFU-Fs (Colony Forming Units-Fibroblast) were harvested from mice, and following in vitro differentiation into bone, cartilage and fat cells, cultured them with different cytokines with and without AZA.
To assess and compare clonal vigour of replated cells, the inventors have developed a system to classify CFU-Fs based on cell number and size (Chong et al., 2011).

primary osteoblasts [2] = test: Surface Pdgf receptor expression and signalling protein levels in primary osteoblasts; details: within 48 hours of exposure
Procedure: Cell pellets were lysed in non-denaturing lysis buffer containing Complete Protease inhibitor cocktail (Roche) and PhosStop (Roche), followed by brief sonication using Bioruptor (Diagenode). The supernatant of the whole-cell extracts were loaded onto NuPage 4-12% Bis-Tri Gel (Life Technology) and transferred using iBlot Gel Transfer Kit (Nitrocellulose, Life Technology) according to the manufacturers instructions. Densitometry was performed using GE ImageQuant TL Software Version 7.0.
Active Pdgf isoforms stimulate cells by binding to and activating signalling by dimerization of two distinct, but structurally related, membrane bound receptor tyrosine kinases; Pdgf receptor-α (Pdgfrα) and Pdgf receptor-β (Pdgfrβ). Pdgf-BB has a greater binding affinity for Pdgfrβ but can also bind Pdgfrα whereas Pdgf-AA interacts only with Pdgfrα. Therefore, Pdgf-AA induces αα-receptor homodimers, PDGF-AB, both αα-receptor homodimers and αβ-receptor heterodimers and Pdgf-BB, all three dimeric combinations of α and β receptors, however in vivo binding of PDGF-AB is not known. Primary osteoblasts express Pdgfrβ but not Pdgfrα. […] These included expression of Pdgf receptors α and β, and components of the Jak/Stat and Jnk/c-Jun pathways but not the PI3kinase pathway. […]

primary osteoblasts [3] = test: Inhibitor studies: PDGF-AB/AZA mediated oCFU-F production from primary osteoblasts; details: inhibitor in reprogramming cocktail from day 1 for 12 days
Procedure: as §1
Active Pdgf isoforms stimulate cells by binding to and activating signalling by dimerization of two distinct, but structurally related, membrane bound receptor tyrosine kinases; Pdgf receptor-α (Pdgfrα) and Pdgf receptor-β (Pdgfrβ). Pdgf-BB has a greater binding affinity for Pdgfrβ but can also bind Pdgfrα whereas Pdgf-AA interacts only with Pdgfrα. Therefore, Pdgf-AA induces αα-receptor homodimers, PDGF-AB, both αα-receptor homodimers and αβ-receptor heterodimers and Pdgf-BB, all three dimeric combinations of α and β receptors, however in vivo binding of PDGF-AB is not known. Primary osteoblasts express Pdgfrβ but not Pdgfrα. […]

[4] = test system: osteocytes from long bones of Pdgfrα-H2B:GFP mice; test: Reprogramming of primary osteocytes from Pdgfrα-H2B:GFP mice (CFU-F assays, flow cytometry)
Procedure: Osteocytes were isolated from long bones of either wild-type C57BL/6 or Pdgfra-nGFP mice. The mice were sacrificed at 8-16 weeks of age. Tibias and femurs were removed, cleaned of soft tissues and transferred to ice cold PBS. Bone marrow was flushed out with 2% FCS in PBS and bones were crushed and cut into ˜200 μm-400 μm pieces using a mortar and pestle and scissors. Bone fragments were transferred into 5 ml of collagenase (Type II, 2 mg/ml) in PBS and placed on a water bath shaker at 37° C. for 30 min twice. Supernatant was collected and collagenase was inactivated with 10 ml of 2% FCS and 5 mM EDTA in PBS. Cells were collected through 40 μm cell strainer. Cells were stained for Seal, CD51, CD31, Lin/CD45 and Pdgfrα. These cells were FACS sorted for Sca1^−/CD31^−/Pdgfra-nGFP^−/Pdgfra-Protein^−/CD51^+ osteocytes. FACS sorted osteocytes and bone fragments were cultured independently in complete culture medium (DMEM+P/S/G+100 ug/ml of ascorbate+10% FCS). Cells were cultured at 37° C. and 5% CO2 in the incubator for 8-10 days. […]
To evaluate how primary lineage committed cells respond to PDGF-AB/AZA, the inventors harvested Lin^−, CD45^−/Sca1^−/CD31^−/Pdgfrα-nGFP^−/Pdgfrα^−/CD51^+ osteocytes from long bones of Pdgfrα-H2B:GFP mice. […] The emergence of CFU-F capacity in reprogrammed osteocytes was evaluated by replating cells for CFU-F assays from the end of day 1 onwards (FIG. 2A).

Molecule | number of CFU-Fs generated at first passage ([1]; bone, cartilage and fat cells) | numbers of large colonies at first passage ([1]; bone, cartilage and fat cells) | colony forming potential (CFU-F) [1] | also measured
Nc1ncn([C@@H]2O[C@H](CO)[C@@H](O)[C@H]2O)c(=O)n1 [AZA, Azacitidine, reference compound] | also generated CFU-Fs at first passage | – | – | serial passaging / replating of colonies ([1]; bone, cartilage and fat cells): could not be replated at all; surface Pdgfrα protein expression on primary osteoblasts (primary osteoblasts [2]): Pdgfrα protein expression was evident
Igf-1: insulin-like growth factor-1, tested with or without AZA | substantially lower than with PDGF-AB | few large colonies | either no or limited CFU-F potential | –
COc1cc2ncc(-c3ccccc3)nc2cc1OC [AG1296] | – | – | – | PDGF-AB/AZA mediated oCFU-F production from primary osteoblasts in presence of inhibitor (primary osteoblasts [3]): abolished
Vegf | substantially lower than with PDGF-AB | few large colonies | either no or limited CFU-F potential | –
Hgf: hepatocyte growth factor, tested with or without AZA (protein, UniProt Q08048 33-495; Q08048 496-728, looked up) Hepatocyte growth factor …: QKKRRNTLHEFKKSAKTTLTKEDPLLKIKTKKVNSADECANRCIRNRGFTFTCKAFVFDKSRKRCYWYPFNSMSSGVKKGFGHEFDLYENKDYIRNCIIGKGGSYKGTVSITKSGIKCQPWNSMIPHEHSFLPSSYRGKDLQENYCRNPRGEEGGPWCFTSNPEVRYEVCDIPQCSEVECMTCNGESYRGPMDHTESGKTCQRWDQQTPHRHKFLPERYPDKGFDDNYCRNPDGKPRPWCYTLDPDTPWEYCAIKTCAHSAVNETDVPMETTECIQGQGEGYRGTSNTIWNGIPCQRWDSQYPHKHDITPENFKCKDLRENYCRNPDGAESPWCFTTDPNIRVGYCSQIPKCDVSSGQDCYRGNGKNYMGNLSKTRSGLTCSMWDKNMEDLHRHIFWEPDASKLNKNYCRNPDDDAHGPWCYTGNPLIPWDYCPISRCEGDTTPTIVNLDHPVISCAKTKQLR Hepatocyte growth factor beta …: VVNGIPTQTTVGWMVSLKYRNKHICGGSLIKESWVLTARQCFPARNKDLKDYEAWLGIHDVHERGEEKRKQILNISQLVYGPEGSDLVLLKLARPAILDNFVSTIDLPSYGCTIPEKTTCSIYGWGYTGLINADGLLRVAHLYIMGNEKCSQHHQGKVTLNESELCAGAEKIGSGPCEGDYGGPLICEQHKMRMVLGVIVPGRGCAIPNRPGIFVRVAYYAKWIHKVILTYKL | substantially lower than with PDGF-AB | few large colonies | either no or limited CFU-F potential | –
bFgf: basic fibroblast growth factor, tested with or without AZA (protein, UniProt P15655 10-154, looked up) Fibroblast growth factor 2: PALPEDGGAAFPPGHFKDPKRLYCKNGGFFLRIHPDGRVDGVREKSDPHVKLQLQAEERGVVSIKGVCANRYLAMKEDGRLLASKCVTEECFFFERLESNNYNTYRSRKYSSWYVALKRTGQYKLGSKTGPGQKAILFLPMSAKS | substantially lower than with PDGF-AB | few large colonies | either no or limited CFU-F potential | –
Pdgf-BB: platelet derived growth factor BB, tested with/without AZA (protein, UniProt P31240 82-190, looked up, homodimer, platelet derived growth factor BB, tested with/without AZA) Platelet-derived growth …: SLGSLAAAEPAVIAECKTRTEVFQISRNLIDRTNANFLVWPPCVEVQRCSGCCNNRNVQCRASQVQMRPVQVRKIEIVRKKPIFKKATVTLEDHLACKCETIVTPRPVT | – | – | – | passaging of CFU-F colonies from treated osteocytes ([4]; 12 days treatment): could not be passaged; CFU-F capacity of treated osteocytes ([4]; up to 12 days treatment): very limited CFU-F capacity
